“Also recorded” adds a separate entry of the source. Where two headings read alike, the source gives them in different places. No end group written: not given here.
T1: SPP (Homo sapiens, UniProt Q8TCT9)
T1 sequence (Q8TCT9 1-377): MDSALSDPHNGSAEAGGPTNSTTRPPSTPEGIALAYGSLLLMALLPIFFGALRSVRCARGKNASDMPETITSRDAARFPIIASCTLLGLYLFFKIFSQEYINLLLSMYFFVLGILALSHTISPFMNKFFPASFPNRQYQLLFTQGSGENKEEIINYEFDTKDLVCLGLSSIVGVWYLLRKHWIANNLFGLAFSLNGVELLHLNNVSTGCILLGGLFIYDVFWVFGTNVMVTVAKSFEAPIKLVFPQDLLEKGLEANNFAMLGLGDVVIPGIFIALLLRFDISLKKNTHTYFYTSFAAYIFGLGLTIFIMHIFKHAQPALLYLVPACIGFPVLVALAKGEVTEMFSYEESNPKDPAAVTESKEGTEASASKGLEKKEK

T2: GST-5ABC (GST fused to residues 720-761 of human erythrocyte band 3) (human, UniProt P02730 720-761)
T2 construct: also called soluble GST-5ABC; GST-5ABC conjugated to beads
T2 chain: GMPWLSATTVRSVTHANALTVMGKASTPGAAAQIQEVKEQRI

B1: native Plasmodium falciparum signal peptide peptidase (PfSPP) (enzyme)
chain: MNLLKLIGKNKKMKNENMGNSIFYYSCYVIIVLTIILSKFVVIPLMAQMFLYTFITIYIGSHDSLKQLEIDDKTKKSDNITAYDAMMFPVIGSAALLTLYFAYKFLDPFYVNLLLTLYLTLAGVFSLQGVFTTILEPVFPNFFKKDEYVKTFKLPNFIYKEPIVFNTNKGEIVCLILSFAIGLRWIFYKDFITHNVLAVSFCFQAISLVILSNFLIGFLLLSGLFVYDIFWVFGNDVMVTVAKSFEAPVKLLFPVSSDPVHYSMLGLGDIIIPGILMSLCLRFDYYLFKNNIHKGNLKKMFNDISIHESFKKYYFYTIIIFYELGLVVTYCMLFYFEHPQPALLYLVPACILAILACSICKREFKLMIKYQEITDKSNTVDDASKNKKKDKEEIPKIQETPVSNAKKRITNK
notes: also called native PfSPP; native P. falciparum PfSPP

Legend:
[1] = system: incomplete version of PfSPP lacking the 6 amino acids; conditions: cited from earlier work
P. falciparum 3D7 = assay: Parasite growth in human erythrocytes from synchronized ring stage; format: cell-based; conditions: for effect on parasite growth in erythrocytes (in words): ring stage parasites, 0.2% DMSO; for inhibition of parasite replication (in words): 10 μM, after one cycle of asexual multiplication
Excerpt: FIG. 9B depicts a graph indicating inhibition of parasite growth as a result of (Z-LL)2-ketone (▪), L-685,458 (•), and DAPT (♦) treatment. […] FIG. 9C is a schematic diagraph showing disruption of the P. falciparum (3D7 strain) PfSPP gene. PfSPP5′ and PfSPP3′ represent 5′ translated region (616 bp) and 3′ translated region (711 bp) of the PfSPP gene, respectively. Dashed lines represent bacterial vector sequences. Bold lines represent untranslated regions of the target PfSPP gene.
The P. falciparum strain 3D7 (obtained from MR4) was maintained in continuous culture in a 5% suspension of fresh type O+ human erythrocytes in RPMI 1640 at 37° C. under 5% CO2, 5% O2, and 90% N2 by the method of Trager and Jensen (Trager et al., 1976, Science 193:673-5). Ring-stage parasites were synchronized by using 5% sorbitol treatment and late-stage parasites were enriched to >95% by centrifugation in 63% (v/v) Percoll as described (Goel et al., 2003, Proc Natl Acad Sci USA 100:5164-5169). The parasite protein extract was prepared by solubilizing an enriched fraction of mature parasites with an extraction buffer (50 mM Tris-HCl, pH 8.0, 150 mM NaCl, 5 mM EDTA, 5 mM EGTA, 0.5% Triton X-100, 0.5% BSA) supplemented with 2 μg/ml Aprotinin, 1 μg/ml of Leupeptin, Pepstatin A, Bestatin, 10 mM PMSF, and a cocktail of protease inhibitors (Roche, Indianapolis, Ind.). The mixture was kept on ice for 1 h and centrifuged at 12,000 g for 20 min at 4° C. The supernatant was stored at −80° C. in aliquots and used in the antibody characterization and binding assays.
The effects of the three inhibitors on malaria parasite growth in human erythrocytes were examined Synchronized ring stage parasites were incubated with inhibitors in the presence of 0.2% DMSO. […] The precipitous decline in parasitemia presumably originated from inhibition of late rings or early trophozoites, as pyknotic parasites were observed after 24-48 h of culture in the presence of (Z-LL)2-ketone and L-685,458 (FIG. 4). Destruction of the inhibitor-treated parasites was irreversible, as no progression to the second asexual cycle was observed. In contrast, DAPT had little or no effect on parasite growth as compared to the DMSO-treated control (FIG. 9A).

SPP = target: T1, SPP; conditions: DAPT at 100 μM; cited from earlier work
[2] = system: P. falciparum merozoite invasion of human erythrocytes; assay: RBC invasion by synchronized schizonts with SPP inhibitors, new rings counted; format: cell-based; conditions: increasing concentrations, 20 h, versus DMSO
Excerpt: To investigate the role of PfSPP in parasite invasion, a chemical approach was adopted by employing three synthetic inhibitors of mammalian membrane aspartyl proteases. The inhibitor (Z-LL)2-ketone (Calbiochem/EMD Biosciences, Gibbstown, N.J.) is specific for mammalian SPP, whereas the L-685,458 and DAPT inhibitors (both were gift of Dr. S. Sisodia of the University of Chicago) are known to be specific for the γ-secretase/Presenilin-1 complex (FIG. 8A). […] Herein, human erythrocytes with highly synchronized P. falciparum schizonts were incubated in the presence of increasing concentrations of (Z-LL)2-ketone, L-685,458, and DAPT. After 20 h of incubation, the rings were counted from the inhibitor and DMSO treated samples.

P. falciparum Dd2 = assay: Parasite growth by [3H]-hypoxanthine incorporation; format: cell-based; conditions: Dd2 strain, chloroquine-resistant
Description: (§1) Since the primary structure of PfSPP is highly conserved, the effect of these inhibitors on the growth of other P. falciparum strains was also tested. The parasite strains tested included two chloroquine-resistant P. falciparum strains (7G8, Dd2), one chloroquine-sensitive strain (HB3), and one mildly chloroquine-resistant strain (FCR3). Parasite growth was evaluated in these four strains by measuring [^3H]-hypoxanthine incorporation starting at 24 h post-invasion. Both (Z-LL)2-ketone and L-685,458 inhibited parasite growth in all 4 parasite strains with the IC50 values similar to 3D7 strain, while DAPT had no effect on any strain (Table 2).

P. falciparum HB3 = assay: Parasite growth by [3H]-hypoxanthine incorporation; format: cell-based; conditions: HB3 strain, chloroquine-sensitive
Description: as §1

P. falciparum FCR3 = assay: Parasite growth by [3H]-hypoxanthine incorporation; format: cell-based; conditions: FCR3 strain, mildly chloroquine-resistant
Description: as §1

P. falciparum 7G8 = assay: Parasite growth by [3H]-hypoxanthine incorporation; format: cell-based; conditions: 7G8 strain, chloroquine-resistant
Description: as §1

PfSPP = assay: RBC-binding assay in suspension with native PfSPP from culture supernatant; set-up: species or system P. falciparum; conditions: soluble protein 40 μM, quantified by densitometry of immunoblot
Description: To carry out a RBC-binding assay in solution using native PfSPP, a spent culture supernatant of P. falciparum containing native PfSPP was prepared as follows. Trophozoites enriched from a 5% sorbitol-synchronized P. falciparum culture were allowed to mature for 16 h to form schizonts and merozoites. The parasites were left in the culture flask to lyse and the proteins were released into the culture supernatant. Aliquots of the culture were centrifuged at either 12,000 g for 20 min or 40,000 g for 15 min at 4° C. The culture supernatant and pellet were analyzed by immunoblot analysis using anti-PfSPP pAbs. The culture supernatant prepared at 12,000 g was stored at −80° C. in aliquots and used in subsequent RBC binding assays. In these assays, a 500 μl sample of P. falciparum culture supernatant was added to untreated, trypsin-treated, chymotrypsin-treated, or neuraminidase-treated intact human RBCs (50 μl packed volume) for 1 h at room temperature. The cells were centrifuged at 12,000 g for 30 s through a layer of silicone oil (500 μl). Proteins bound to RBCs were eluted by incubating the RBCs in 1.5 M NaCl (20 μl) for 30 min at room temperature. Salt-eluted proteins were analyzed by SDS-PAGE followed by immunoblotting using anti-PfSPP Abs. The pretreatment of intact RBCs with enzymes was carried out as described (Goel et al., 2003, Proc Natl Acad Sci USA 100:5164-5169). […]

[3] = target: T3, γ-secretase/Presenilin-1 complex (Homo sapiens, UniProt P49768); conditions: (Z-LL)2-ketone up to 100 μM; cited from earlier work
T3 construct: host or cells: live mammalian cells

[4] = target: T2, GST-5ABC (GST fused to residues 720-761 …); assay: bead pull-down (GST-5ABC on GSH beads), immunoblot with anti-PfSPP/ER pAbs
[5] = 3D7 strain, read-out: IC50 parasite growth
[6] = FIG. 9B legend, read-out: IC50 for live parasites

| Molecule | inhibition of in vitro enzyme activity (in words) [1] | effect on parasite growth in erythrocytes (in words) (P. falciparum 3D7) | effect on SPP activity (in words) (SPP) | effect on parasite/merozoite invasion (in words) [2] | IC50 (P. falciparum Dd2) [nM] | IC50 (P. falciparum HB3) [nM] | IC50 (P. falciparum FCR3) [nM] | IC50 (P. falciparum 7G8) [nM] | decrease of binding of PfSPP to RBCs (PfSPP) [%] | inhibition of parasite replication (in words) (P. falciparum 3D7) | IC50 (P. falciparum 3D7; [5]) [nM] | IC50 (P. falciparum 3D7; [6]) [nM] | inhibition of γ-secretase/Presenilin-1 activity (in words) [3] | binding result [4] |
| --- | --- | --- | --- | --- | --- | --- | --- | --- | --- | --- | --- | --- | --- | --- |
| C[C@H](NC(=O)[C@@H](O)c1cc(F)cc(F)c1)C(=O)N[C@@H]1C(=O)N(C)c2ccccc2-c2ccccc21 [LY411,575] | inhibited |  |  |  |  |  |  |  |  |  |  |  |  |  |
| C[C@H](NC(=O)Cc1cc(F)cc(F)c1)C(=O)N[C@H](C(=O)OC(C)(C)C)c1ccccc1 [DAPT] |  | no effect | no effect | minimal effect; also recorded: no effect | > 10000 | > 10000 | > 10000 | > 10000 |  |  |  |  |  |  |
| GST-5ABC: GST fusion protein of 5ABC peptide, residues 720-761 of human band 3 (SEQ ID NO:7) (GMPWLSATTVRSVTHANALTVMGKASTPGAAAQIQEVKEQRI; also: GST fusion; UniProt P02730 720-761, looked up, fragment) |  |  |  |  |  |  |  |  | 94 |  |  |  |  |  |
| CC(C)C[C@H](NC(=O)OCc1ccccc1)C(=O)N[C@@H](CC(C)C)C(=O)NCC(=O)CNC(=O)[C@H](CC(C)C)NC(=O)[C@H](CC(C)C)NC(=O)OCc1ccccc1 [(Z-LL)2-ketone] | inhibited | significant inhibition |  | efficiently inhibited; also recorded: significant decrease in the number of new rings | 1080 ± 70 | 1060 ± 50 | 1230 ± 40 | 1120 ± 50 |  | complete inhibition | 985 | 985 | does not inhibit |  |
| CC(C)C[C@H](NC(=O)[C@H](Cc1ccccc1)C[C@@H](O)[C@H](Cc1ccccc1)NC(=O)OC(C)(C)C)C(=O)N[C@@H](Cc1ccccc1)C(N)=O [L-685,458] |  | significant inhibition | inhibited | efficiently inhibited; also recorded: significant decrease in the number of new rings | 180 ± 30 | 190 ± 20 | 230 ± 30 | 210 ± 40 |  | complete inhibition | 174 | 174 | inhibited |  |
| B1 |  |  |  |  |  |  |  |  |  |  |  |  |  | binds |
